“Also recorded” adds a separate entry of the source.
Key:
wart-shaped excrescence = test: topical treatment of a wart-shaped excrescence (Example 9); format: in vivo, human
Method: A person presented a wart-shaped excrescence of increasing size (diameter: about 5 mm; height: about 3 mm), formed at the site of a stab wound on their right middle finger after an initial inflammatory reaction. The excrescence grew over a period of about 1.5 years. There was heavy vascularization at the site, as well as superficial furrowing. The position of the wart (side facing the ring finger), made it quite susceptible to injury.
The patient was treated by topically administering a composition containing 40 mg/ml hexadecylphosphocholine, 317 mg/ml of 3-propoxypropyleneglycol, 158 mg/ml of hexyloxypropyleneglycol, and 158 mg/ml of nonyloxypropyleneglycol, in solution, and then a solution containing 60 mg/ml of the hexadecy/phosphocholine, and the other components above, in the same amounts. The solutions were administered topically, 2-3 times per day.
The excrescence rapidly developed a horny surface, and regressed. Cornified residues were removable without bleeding. The treatment was terminated […] the surrounding skin level was reached. This took about 6 weeks. When the patient was examined about 8 weeks later, the condition was stable. […] It is believed that this was the result of regeneration of the epidermis in the excrescence region.

[1] = system: chemically-induced mammary carcinomas; test: chemically-induced mammary carcinomas in rats, oral potable solution; format: in vivo, rat; conditions: daily doses of 20, 40 and 60 mg/kg body weight
Excerpt: For oral administration, the compounds of formula I are advantageously used in the form of a potable solution. Suitable potable carriers for this purpose include milks, cocoa, fruit juices and drinking water. The preparation of such potable solutions can involve, for example, diluting a concentrated alcoholic solution of a compound of the formula I or I′ with water or with another one of the previously mentioned carriers. […] The tumor model used for these experiments was a so-called hard model. This means that the findings obtained with this model can also be applied to humans.

SMILES | condition at follow-up (wart-shaped excrescence; examined about 8 weeks after end of treatment) | effect on the excrescence (wart-shaped excrescence; person, topical 2-3 times per day, 40 then 60 mg/ml in propoxy-/hexyloxy-/nonyloxypropyleneglycol solution) | damage to surrounding healthy skin regions (wart-shaped excrescence; topical) | time of treatment until termination (before surrounding skin level was reached) (wart-shaped excrescence; topical 2-3 times per day) | skin reactions (wart-shaped excrescence; topical, reddening disappeared after about 2 weeks) | remission of chemically-induced mammary carcinomas [1]
CCCCCCCCCCCCCCCCOP(=O)([O-])OCC[N+](C)(C)C [hexadecylphosphocholine] | stable | regressed | no apparent damage | about 6 weeks | slight reddening of the skin; also recorded: slight peeling of healthy skin | –
CCCCCCCC/C=C\CCCCCCCCOP(=O)([O-])OCC[N+](C)(C)C [oleylphosphocholine] | – | – | – | – | – | complete remission

Reference: patent US20020173489A1, “COMPOSITIONS CONTAINING A MIXTURE OF PHOSPHOROUS COMPOUNDS AND ALKYLGLYCEROLS” (priority 1987, published 2002)
